Experimental data as given in ChEMBL document CHEMBL1201862, “PubChem BioAssay data set” (2004).
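1) Cells in 96-well plates. 2) Compound, 48 h, 5 concentrations. 3) Linear interpolation between surrounding doses. 4) Unreached endpoint = highest concentration. GI50 = concentration required for 50% inhibition of growth.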 Active and inactive are the calls of the source. Rule as the data show it: active = GI50 up to about 1.1 µM and inactive = higher.

Key:
Assay in all cases: NCI-60 cell line screen, 48 h
[1] = system: RPMI-8226
[2] = system: UACC-257
[3] = system: DMS-114
[4] = system: DMS-273
[5] = system: LXFL 529
[6] = system: SNB-75
[7] = system: OVCAR-3
[8] = system: RXF 631
[9] = system: HCT-15
[10] = system: SN12C
[11] = system: HOP-62
[12] = system: RXF 393
[13] = system: K562
[14] = system: SK-OV-3
[15] = system: SF-268
[16] = system: OVCAR-8
[17] = system: M14
[18] = system: SF-295
[19] = system: ACHN
[20] = system: HT-29
[21] = system: NCI-H460
[22] = system: UO-31
[23] = system: UACC-62
[24] = system: A549
[25] = system: SK-MEL-5
[26] = system: SF-539
[27] = system: OVCAR-4
[28] = system: HOP-18
[29] = system: DLD-1
[30] = system: HL-60
[31] = system: MOLT-4
[32] = system: NCI-H522
[33] = system: TK-10
[34] = system: SK-MEL-2
[35] = system: Malme-3M
[36] = system: SNB-19
[37] = system: HOP-92
[38] = system: U-251
[39] = system: OVCAR-5
[40] = system: KM12
[41] = system: CAKI-1
[42] = system: LOX IMVI
[43] = system: COLO 205
[44] = system: NCI-H23
[45] = system: SK-MEL-28
[46] = system: SW-620
[47] = system: M19-MEL
[48] = system: EKVX
[49] = system: IGROV-1
[50] = system: HCC 2998
[51] = system: KM-20L2
[52] = system: 786-0
[53] = system: CCRF-CEM

CCOP(=O)(Cc1ccc(CP(=O)(OCC)OCC)n1C)OCC
GI50 [1]: > 100 µM (inactive)
GI50 [2]: > 100 µM (inactive)
GI50 [3]: > 100 µM (inactive)
GI50 [4]: > 100 µM (inactive)
GI50 [5]: > 100 µM (inactive)
GI50 [6]: > 100 µM (inactive)
GI50 [7]: > 100 µM (inactive)
GI50 [8]: > 100 µM (inactive)
GI50 [9]: > 100 µM
GI50 [10]: > 100 µM (inactive)
GI50 [11]: > 100 µM (inactive)
GI50 [12]: > 100 µM (inactive)
GI50 [13]: > 100 µM (inactive)
GI50 [14]: > 100 µM (inactive)
GI50 [15]: > 100 µM (inactive)
GI50 [16]: > 100 µM (inactive)
GI50 [17]: > 100 µM (inactive)
GI50 [18]: > 100 µM (inactive)
GI50 [19]: > 100 µM (inactive)
GI50 [20]: > 100 µM (inactive)
GI50 [21]: > 100 µM (inactive)
GI50 [22]: > 100 µM (inactive)
GI50 [23]: > 100 µM (inactive)
GI50 [24]: > 100 µM (inactive)
GI50 [25]: > 100 µM (inactive)
GI50 [26]: > 100 µM (inactive)
GI50 [27]: > 100 µM (inactive)
GI50 [28]: 75 µM (inactive)
GI50 [29]: > 100 µM (inactive)
GI50 [30]: > 100 µM (inactive)
GI50 [31]: > 100 µM (inactive)
GI50 [32]: > 100 µM (inactive)
GI50 [33]: > 100 µM (inactive)
GI50 [34]: > 100 µM (inactive)
GI50 [35]: > 100 µM (inactive)
GI50 [36]: > 100 µM (inactive)
GI50 [37]: > 100 µM (inactive)
GI50 [38]: > 100 µM (inactive)
GI50 [39]: > 100 µM (inactive)
GI50 [40]: > 100 µM (inactive)
GI50 [41]: > 100 µM (inactive)
GI50 [42]: > 100 µM (inactive)
GI50 [43]: > 100 µM (inactive)
GI50 [44]: > 100 µM (inactive)
GI50 [45]: > 100 µM (inactive)
GI50 [46]: > 100 µM (inactive)
GI50 [47]: > 100 µM (inactive)
GI50 [48]: > 100 µM (inactive)
GI50 [49]: > 100 µM (inactive)
GI50 [50]: > 100 µM (inactive)
GI50 [51]: > 100 µM (inactive)
GI50 [52]: > 100 µM (inactive)
GI50 [53]: > 100 µM (inactive)
